In PMC8380825 (Journal of molecular biology, 2021):
Where no end group is shown, it is not given here.

Experiments:
NPR-1 mutants [1] = target: NPR-1 mutants (Caenorhabditis elegans, UniProt Q18534, D303A/D304A/E301A); assay: cAMP reporter gene assay; assay type: cell-based, C. elegans
NPR-1 mutants [2] = target: NPR-1 mutants (Caenorhabditis elegans, UniProt Q18534, D315A); assay: cAMP reporter gene assay; assay type: cell-based, C. elegans; conditions: NPR-1 D^7.26A mutant
NPR-1 mutants [3] = target: NPR-1 mutants (Caenorhabditis elegans, UniProt Q18534, D316A); assay: cAMP reporter gene assay; assay type: cell-based, C. elegans; conditions: NPR-1 D^7.27A mutant
Sequence of NPR-1 mutants (Caenorhabditis elegans, UniProt Q18534, D316A) (Q18534 whole entry D316A): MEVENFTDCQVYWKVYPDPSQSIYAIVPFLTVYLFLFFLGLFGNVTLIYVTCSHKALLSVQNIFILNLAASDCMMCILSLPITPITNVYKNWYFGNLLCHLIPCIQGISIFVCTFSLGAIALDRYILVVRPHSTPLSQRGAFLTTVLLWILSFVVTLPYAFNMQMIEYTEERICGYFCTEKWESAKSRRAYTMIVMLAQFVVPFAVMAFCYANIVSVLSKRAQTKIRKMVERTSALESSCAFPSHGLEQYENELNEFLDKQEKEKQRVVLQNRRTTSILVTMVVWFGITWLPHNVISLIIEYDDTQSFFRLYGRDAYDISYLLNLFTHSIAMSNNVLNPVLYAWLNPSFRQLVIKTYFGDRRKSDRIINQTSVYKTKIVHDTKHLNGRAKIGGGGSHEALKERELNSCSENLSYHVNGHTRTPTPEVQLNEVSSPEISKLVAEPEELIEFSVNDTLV

NPR-1 mutants [4] = target: NPR-1 mutants (Caenorhabditis elegans, UniProt Q18534, E180A); assay: cAMP reporter gene assay; assay type: cell-based, C. elegans
Sequence of NPR-1 mutants (Caenorhabditis elegans, UniProt Q18534, E180A) (Q18534 whole entry E180A): as the sequence (Q18534 whole entry D316A) above, with E180A, A316D counted along it

NPR-1 mutants [5] = target: NPR-1 mutants (Caenorhabditis elegans, UniProt Q18534, E180D); assay: cAMP reporter gene assay; assay type: cell-based, C. elegans
Sequence of NPR-1 mutants (Caenorhabditis elegans, UniProt Q18534, E180D) (Q18534 whole entry E180D): as the sequence (Q18534 whole entry D316A) above, with E180D, A316D counted along it

NPR-1 mutants [6] = target: NPR-1 mutants (Caenorhabditis elegans, UniProt Q18534, E180Q); assay: cAMP reporter gene assay; assay type: cell-based, C. elegans
Sequence of NPR-1 mutants (Caenorhabditis elegans, UniProt Q18534, E180Q) (Q18534 whole entry E180Q): as the sequence (Q18534 whole entry D316A) above, with E180Q, A316D counted along it

NPR-1 mutants [7] = target: NPR-1 mutants (Caenorhabditis elegans, UniProt Q18534, E301A); assay: cAMP reporter gene assay; assay type: cell-based, C. elegans
Sequence of NPR-1 mutants (Caenorhabditis elegans, UniProt Q18534, E301A) (Q18534 whole entry E301A): as the sequence (Q18534 whole entry D316A) above, with E301A, A316D counted along it

NPR-1 mutants [8] = target: NPR-1 mutants (Caenorhabditis elegans, UniProt Q18534, E301D); assay: cAMP reporter gene assay; assay type: cell-based, C. elegans
Sequence of NPR-1 mutants (Caenorhabditis elegans, UniProt Q18534, E301D) (Q18534 whole entry E301D): as the sequence (Q18534 whole entry D316A) above, with E301D, A316D counted along it

NPR-1 mutants [9] = assay: cAMP reporter gene assay; assay type: cell-based, C. elegans; conditions: mutation of T^2.61 and Q^3.32 of NPR-1
NPR-11 [10] = target: T1, NPR-11 (Caenorhabditis elegans, UniProt Q18179); assay: cAMP reporter gene assay; assay type: cell-based, C. elegans
T1 sequence (Q18179 1-402): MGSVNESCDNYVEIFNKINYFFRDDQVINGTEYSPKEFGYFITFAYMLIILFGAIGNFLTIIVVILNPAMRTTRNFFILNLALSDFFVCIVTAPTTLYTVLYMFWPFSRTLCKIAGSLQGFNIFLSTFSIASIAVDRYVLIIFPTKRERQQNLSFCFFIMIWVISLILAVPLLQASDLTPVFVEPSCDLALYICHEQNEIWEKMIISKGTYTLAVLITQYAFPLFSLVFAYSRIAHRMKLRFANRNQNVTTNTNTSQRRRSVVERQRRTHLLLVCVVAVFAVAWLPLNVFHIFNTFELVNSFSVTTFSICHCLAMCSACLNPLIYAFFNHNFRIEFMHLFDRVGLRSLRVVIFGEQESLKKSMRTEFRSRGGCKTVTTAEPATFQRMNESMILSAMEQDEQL

NPR-11 mutants [11] = target: NPR-11 mutants (Caenorhabditis elegans, UniProt Q18179, E196A); assay: cAMP reporter gene assay; assay type: cell-based, C. elegans
Sequence of NPR-11 mutants (Caenorhabditis elegans, UniProt Q18179, E196A) (Q18179 whole entry E196A): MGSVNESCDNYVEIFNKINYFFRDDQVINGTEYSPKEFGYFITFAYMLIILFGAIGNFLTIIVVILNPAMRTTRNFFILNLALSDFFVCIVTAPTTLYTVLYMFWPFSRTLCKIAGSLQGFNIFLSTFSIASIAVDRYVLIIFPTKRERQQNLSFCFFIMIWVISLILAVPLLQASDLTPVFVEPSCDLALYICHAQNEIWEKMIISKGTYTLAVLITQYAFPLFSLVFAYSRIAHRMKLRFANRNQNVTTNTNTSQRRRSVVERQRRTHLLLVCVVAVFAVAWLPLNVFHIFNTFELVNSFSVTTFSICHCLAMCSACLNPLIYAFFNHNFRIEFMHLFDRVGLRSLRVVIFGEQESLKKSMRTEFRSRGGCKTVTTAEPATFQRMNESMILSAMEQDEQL

NPR-11 mutants [12] = target: NPR-11 mutants (Caenorhabditis elegans, UniProt Q18179, E196D); assay: cAMP reporter gene assay; assay type: cell-based, C. elegans; conditions: NPR-11 E^5.23D
Sequence of NPR-11 mutants (Caenorhabditis elegans, UniProt Q18179, E196D) (Q18179 whole entry E196D): as the sequence (Q18179 whole entry E196A) above, with A196D counted along it

NPR-11 mutants [13] = target: NPR-11 mutants (Caenorhabditis elegans, UniProt Q18179, E196Q); assay: cAMP reporter gene assay; assay type: cell-based, C. elegans
Sequence of NPR-11 mutants (Caenorhabditis elegans, UniProt Q18179, E196Q) (Q18179 whole entry E196Q): as the sequence (Q18179 whole entry E196A) above, with A196Q counted along it

NPR-11 mutants [14] = target: NPR-11 mutants (Caenorhabditis elegans, UniProt Q18179, E199A); assay: cAMP reporter gene assay; assay type: cell-based, C. elegans; conditions: NPR-11 E^5.26A
Sequence of NPR-11 mutants (Caenorhabditis elegans, UniProt Q18179, E199A) (Q18179 whole entry E199A): as the sequence (Q18179 whole entry E196A) above, with A196E, E199A counted along it

NPR-11 mutants [15] = target: NPR-11 mutants (Caenorhabditis elegans, UniProt Q18179, F307A); assay: cAMP reporter gene assay; assay type: cell-based, C. elegans; conditions: NPR-11 F^7.35A
Sequence of NPR-11 mutants (Caenorhabditis elegans, UniProt Q18179, F307A) (Q18179 whole entry F307A): as the sequence (Q18179 whole entry E196A) above, with A196E, F307A counted along it

NPR-11 mutants [16] = target: NPR-11 mutants (Caenorhabditis elegans, UniProt Q18179, Q119A); assay: cAMP reporter gene assay; assay type: cell-based, C. elegans
Sequence of NPR-11 mutants (Caenorhabditis elegans, UniProt Q18179, Q119A) (Q18179 whole entry Q119A): as the sequence (Q18179 whole entry E196A) above, with Q119A, A196E counted along it

NPR-11 mutants [17] = target: NPR-11 mutants (Caenorhabditis elegans, UniProt Q18179, Q119H); assay: cAMP reporter gene assay; assay type: cell-based, C. elegans; conditions: NPR-11 Q^3.32H
Sequence of NPR-11 mutants (Caenorhabditis elegans, UniProt Q18179, Q119H) (Q18179 whole entry Q119H): as the sequence (Q18179 whole entry E196A) above, with Q119H, A196E counted along it

NPR-11 mutants [18] = target: NPR-11 mutants (Caenorhabditis elegans, UniProt Q18179, T96A); assay: cAMP reporter gene assay; assay type: cell-based, C. elegans; conditions: NPR-11 T^2.61A
Sequence of NPR-11 mutants (Caenorhabditis elegans, UniProt Q18179, T96A) (Q18179 whole entry T96A): as the sequence (Q18179 whole entry E196A) above, with T96A, A196E counted along it

NPR-11 mutants [19] = assay: cAMP reporter gene assay; assay type: cell-based, C. elegans
NPR-1 [20] = target: T2, NPR-1 (Caenorhabditis elegans, UniProt Q18534); conditions: read-out: EC50 at NPR-1; ref [13]; cited from earlier work
T2 sequence (Q18534 1-457): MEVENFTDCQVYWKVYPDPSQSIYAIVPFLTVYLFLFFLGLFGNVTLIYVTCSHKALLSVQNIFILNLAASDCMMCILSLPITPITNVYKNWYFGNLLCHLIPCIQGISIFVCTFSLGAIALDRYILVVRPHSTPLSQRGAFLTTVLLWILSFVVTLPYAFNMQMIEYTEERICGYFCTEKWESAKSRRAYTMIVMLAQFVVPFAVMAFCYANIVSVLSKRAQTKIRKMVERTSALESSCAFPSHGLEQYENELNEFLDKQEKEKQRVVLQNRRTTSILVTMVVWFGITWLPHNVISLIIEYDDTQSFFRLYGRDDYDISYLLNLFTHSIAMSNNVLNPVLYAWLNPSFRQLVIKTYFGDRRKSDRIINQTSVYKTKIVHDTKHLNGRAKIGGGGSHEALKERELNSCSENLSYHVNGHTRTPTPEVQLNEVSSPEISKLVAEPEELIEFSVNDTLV

NPR-1 [21] = target: T2, NPR-1; assay: cAMP reporter gene assay; assay type: cell-based, C. elegans; conditions: wild type NPR-1
NPR-11 [22] = target: T1, NPR-11; assay: NanoBRET displacement binding assay, Nluc-NPR-11 wild type; design: species or system C. elegans
[23] = target: Q^3.32A variant of NPR-11 (Caenorhabditis elegans, UniProt Q18179, Q119A); assay: NanoBRET displacement binding assay, Nluc-NPR-11 Q^3.32A variant; design: species or system C. elegans
Sequence of Q^3.32A variant of NPR-11 (Q18179 whole entry Q119A): as the sequence (Q18179 whole entry E196A) above, with Q119A, A196E counted along it

Sequence of NPR-1 mutants (Caenorhabditis elegans, UniProt Q18534, D315A) (Q18534 whole entry D315A): as the sequence (Q18534 whole entry D316A) above, with D315A, A316D counted along it
Sequence of NPR-1 mutants (Caenorhabditis elegans, UniProt Q18534, D303A/D304A/E301A) (Q18534 whole entry E301A/D303A/D304A): as the sequence (Q18534 whole entry D316A) above, with E301A, D303A, D304A, A316D counted along it

## GLGPRPLRF-NH2 [FLP-21]
NPR-1 mutants [1]
  EC50: > 10 µM
NPR-1 mutants [2]
  EC50 shift relative to wild type receptor: < 5 fold
NPR-1 mutants [3]
  EC50 shift relative to wild type receptor: < 5 fold
NPR-1 mutants [4]
  EC50: > 10 µM
NPR-1 mutants [5]
  EC50: 0.495 µM
NPR-1 mutants [5]; NPR-1 E^5.27D
  EC50 shift relative to wild type receptor: > 600 fold
NPR-1 mutants [6]
  EC50: > 10 µM
NPR-1 mutants [7]
  EC50: 0.02 µM
NPR-1 mutants [7]; NPR-1 E^6.59A
  EC50 shift relative to wild type NPR-1: 25 fold
NPR-1 mutants [8]
  EC50: 0.00013 µM
NPR-1 mutants [9]
  decrease of receptor activation relative to wild type receptor: > 30 fold
NPR-11 [10]; EC50 NPR-11 versus EC50 NPR-1
  reduced potency at NPR-11 compared to NPR-1: 64 fold
NPR-11 mutants [11]
  EC50: > 10 µM
NPR-11 mutants [12]
  decreased potency relative to wild type receptor: > 70 fold
NPR-11 mutants [13]
  EC50: > 10 µM
NPR-11 mutants [14]
  receptor activation in words: inactive
NPR-11 mutants [15]
  receptor activation in words: inactive
NPR-11 mutants [16]
  EC50: 0.0001 µM
NPR-11 mutants [16]; NPR-11 Q^3.32A
  EC50 as fold of the wild type receptor: 0.002 fold
  gain of function relative to wild type receptor: > 500 fold
NPR-11 mutants [17]
  receptor activation in words: did not affect activation
NPR-11 mutants [18]
  EC50 shift relative to wild type receptor: 4 fold
NPR-11 mutants [19]; NPR-11 E^5.26 mutated to glutamine or aspartate
  receptor activation in words: behaved like wild type
NPR-11 mutants [19]; NPR-11 F^7.35 to histidine or leucine
  EC50 shift relative to wild type receptor: > 200 fold
NPR-11 mutants [19]; NPR-11 T^6.59 and N^6.58 alanine mutants
  receptor activation in words: wild type-like activities

## RGPSGPLRF-NH2 [FLP-15–2]
NPR-1 [20]
  EC50: 0.022 µM

## [L^7A]-FLP-21: FLP-21 variant, L^7 to alanine (GLGPRPARF-NH2)
NPR-1 [21]
  EC50 shift (loss of potency) relative to wild type FLP-21: 497 fold
NPR-11 [10]; wild type NPR-11
  EC50 shift relative to wild type FLP-21: 10 fold
NPR-11 mutants [16]; NPR-11 Q^3.32A
  EC50 shift compared to FLP-21 at the same receptor mutant: 300 fold
NPR-11 [22]
  reduction of Ki relative to FLP-21: less than 10 fold
[23]
  reduction of Ki compared to FLP-21: 100 fold
